Test results: article PMC2259182, “Identification of biomarkers for the antiangiogenic and antitumour activity of the superoxide dismutase 1 (SOD1) inhibitor tetrathiomolybdate (ATN-224)” (British Journal of Cancer, 2008)

Biological target: T1, Purified bovine SOD1 (Bos taurus, UniProt P00442)
T1 construct: commercial purified enzyme (Sigma)
Experiment: WST-1 reduction by xanthine oxidase-generated superoxide
Type: biochemical

T1 sequence (P00442 2-152): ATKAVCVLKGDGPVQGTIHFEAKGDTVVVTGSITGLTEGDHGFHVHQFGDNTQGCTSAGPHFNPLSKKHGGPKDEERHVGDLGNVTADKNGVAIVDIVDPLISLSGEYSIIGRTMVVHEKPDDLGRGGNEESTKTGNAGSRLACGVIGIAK

Q: For [S]=[Mo](=[S])([SH])[SH] [ATN-224], which IC50 is on record?
A: The IC50 was 2.03 µM.
